{"source": "patent US20220288001A1", "about": "“CREATINE FOR IMMUNOTHERAPY” (The Regents of the University of California, priority 2019, published 2022)", "key": {"cancer growth": {"tested_on": "cancer growth", "settings": "early studies (Kristensen et al., 1999; Miller et al., 1993); cited from earlier work"}, "[1]": {"tested_on": "tumor-infiltrating CD8 T cells", "assay": "Flow cytometry phenotype of tumor-infiltrating CD8 T cells in B16-OVA model", "type": "in vivo, mouse", "settings": "B16-OVA tumors collected day 17; creatine supplementation", "source_text": "Fluorochrome-conjugated monoclonal antibodies specific for mouse CD45.2 (cat #109820; clone 104), TCRβ (cat #109220; clone H57-597), CD4 (cat #100531; clone RM4-5), IFN-γ (cat #505806; clone XMG1.2), Granzyme B (cat #372208; clone QA16A02). TCR Vα2 (cat #127809; clone B20.1), CD69 (cat #104508; clone H1.2F3), CD25 (cat #102006; clone PC61), CD8 (cat #100732: clone 53-6.7), CD44 (cat #103030; clone IM7), LAG-3 (CD223) (cat #125207; clone C9B7W), and Tim-3 (CD366) (cat #119705; clone RMT3-23) were purchased from BioLegend. […] Stained cells were analyzed using a MACSQuant Analyzer 10 Flow Cytometer (Miltenyi Biotee). […] To assess gene expression, CD45^+ immune cells were sorted from TIIs using flow cytometry then analyzed for CrT mRNA expression using qPCR. To assess T cell activation status, TIIs were analyzed for surface activation marker (CD25 and PD-1) expression using flow cytometry. […] TIIs were analyzed for intracellular Granzyme B expression using flow cytometry. To assess T cell cytokine production, Tis were stimulated with PMA (50 ng/ml)+Ionomycine (500 ng/ml) in the presence of GolgiStop (4 μl per 6 ml culture) for 4 hours, then analyzed for intracellular cytokine (IL-2 and IFN-γ) production using flow cytometry. […]"}}, "data": [{"smiles": "CN(CC(=O)O)C(=N)N", "note": "[creatine]", "values": [{"measurement": "direct inhibition of cancer growth", "setting": "cancer growth", "value": "could directly inhibit cancer growth"}, {"measurement": "“exhaustion-prone” phenotype cells (PD-1hiCD62Llo) among tumor-infiltrating CD8 T cells", "setting": "[1]", "value": "significant reduction"}]}]}
